According to patent US20170258787A1, “PROPHYLACTIC AND/OR THERAPEUTIC AGENT FOR BEHAVIORAL AND PSYCHOLOGICAL SYMPTOMS ASSOCIATED WITH NEURODEGENERATIVE DISEASE OR IMPULSIVE SYMPTOMS ASSOCIATED WITH MENTAL DISEASE CONTAINING BREXPIPRAZOLE OR SALT THEREOF” (OTSUKA PHARMACEUTICAL CO., LTD., priority 2012, published 2017):

Columns and labels:
[1] = tested on: schizophrenia patients; settings: Psychiatric Services 2001, 52:1510-14; cited from earlier work
[2] = tested on: Wistar rat; test: Measurement of alcohol intake by limited access paradigm; format: in vivo
Protocol: Measurement method: An impulsive behavior of cravings for alcohol was evaluated as follows by reference to the method of Sinclair et al. (Alcohol 1992; 9:441-44 and Alcohol & Alcoholism 2001; 36:2-10). First, Wistar rat (male) was allowed to freely take 10% aqueous ethanol solution and tap water for several weeks under isolated housing. After stabilization of ethanol intake by each animal, a limited access paradigm allowing ethanol intake for only 1 hr per day was started, and the ethanol intake for 1 hr was measured every day. Ethanol intake was calculated from the results of the weight measurement of the water supply bottle filled with 10% aqueous ethanol solution immediately before the start of the limited access paradigm and immediately after completion thereof. An animal which was showing over 0.4 g/kg/hr in terms of 100% ethanol as an average ethanol intake in the limited access paradigm for 4 days immediately before drug evaluation was used. The limited access paradigm test was performed between 9:00 AM-12:00 PM. Brexpiprazole was suspended in distilled water containing 5% gum arabic. […] An average ethanol intake in the limited access paradigm of 4 days immediately before drug evaluation and an average ethanol intake in the limited access paradigm of 4 days after drug administration were analyzed by the 2-tailed paired t-test.

[3] = tested on: Tg2576 mouse; test: Resident-Intruder test (aggression, biting); format: in vivo; settings: 0.03 mg/kg oral 1 hr before test
Text: Animal: Tg2576 mice (male) having a Swedish APP mutation (K670N, M671L) and non-Tg mice (male) free of the same genetic mutation as a control were purchased from Taconic, and bred and aged until 5- to 6-month-old of age. During the breeding, isolated housing was applied. Measurement method: For the experiment, Tg2576 or non-Tg mouse [Resident] and A/J mouse [Intruder] almost free of aggression were used. Resident formed a sufficient territory by isolated housing for 14 days. […] As the aggressive behavior, biting was noted, and the time necessary for the first biting and total number of biting for 10 min were measured. The measurement was performed within the dark period phase 1 (4 hr) when the amount of locomotor activity of the mouse is the highest. Tg2576 (48 mice) and non-Tg mice (10 mice) were subjected to a Resident-Intruder test in advance, and promotion of the to aggression of the Tg2576 mouse was confirmed. Five Tg2576 mice free of aggression were excluded and 43 mice were used for the test. The mice were grouped into 3 groups in such manner as makes the mean and variance of the groups equal, using the time necessary for the first attack and total number of biting for 10 min, which were obtained in the preliminary test, as indices (total 43 mice). […]

[4] = tested on: APPSL-Tg mouse; test: Measurement of mouse circadian rhythm locomotor activity (spontaneous locomotor activity in dark period); format: in vivo; settings: for spontaneous locomotor activity, dark period III (3:00-7:00), Night 1 / spontaneous locomotor activity, dark period III (3:00-7:00), Night 2 / spontaneous locomotor activity, dark period III (3:00-7:00), Night 3: APPSL-Tg mice
Text: 1) Measurement of Mouse Circadian Rhythm Locomotor Activity
(§1) Animal: APPSL-Tg mouse (male) having Swedish and London APP mutations, and non-Tg mouse (male) free of a genetic mutation as a control were generated (Neuroscience Letters 2010; 469:273-277), bred in a breeding room, and used after they became 6-month-old. During the breeding, isolated housing was applied.
(§2) Measurement method: SUPERMEX manufactured by Muromachi Kikai Co., Ltd. was used for the measurement of circadian rhythm locomotor activity. The mouse was placed in an individual cage, and the spontaneous locomotor activity of the mouse was measured for 3 days (total 62.5 hr) under free-feeding, drinking water conditions. In this apparatus, a passive infrared sensor detects infrared rays emitted from the mouse, and the number of transpositions is counted. The measured values are totaled every 30 min, and automatically totaled using a specialized software CompACT AMS. The test was performed in a soundproof chamber, so that the spontaneous locomotor activity of the mouse would not be influenced. The lighting time in the soundproof chamber was set to 7:00-19:00 as in the breeding room.
The amounts of spontaneous locomotor activity of non-Tg mice and APPSL-Tg mice during the dark period of 19:00-7:00 were measured in advance. The mice were grouped in such manner as makes the mean and variance of the groups equal, using the body weight and the dark period spontaneous locomotor activity as indices.
Brexpiprazole was dissolved in distilled water containing 5% gum arabic, 5% gum arabic distilled water was used for the vehicle group, and they were orally administered to each mouse.
For 3 days, brexpiprazole and the vehicle were administered during the period of 17:30-18:30. After the administration, the measurement of the amount of locomotor activity was rapidly started or continued.
The statistical test was a two-sided test, and the significance level of the test was set to 5%. As a statistical software, SAS (R9.1, SAS Institute Japan Ltd.) was used.
Dunnett's test was performed based on the repeated measures ANOVA using a mixed model for Night 1-Night 3 at every phase I, II or III of the dark period. Furthermore, Dunnett's test was performed for every dark period and Night.

[5] = tested on: Wistar rat; test: Spontaneous locomotor activity under novel environments; format: in vivo; settings: 0.1 mg/kg, data not indicated
[6] = tested on: non-Tg mouse; test: Measurement of mouse circadian rhythm locomotor activity in control mice; format: in vivo
Text: as §1, §2
Brexpiprazole was administered to APPSL-Tg mouse immediately before the dark period (17:30-18:30) at a dose of 0.01 and 0.03 mg/kg, and the measurement of the spontaneous locomotor activity was started. […]

[7] = tested on: c-fos-GFP mouse; test: Measurement of nerve activation pattern (GFP signal) of c-fos-GFP mouse; format: in vivo; settings: brain isolated 3 hr later
Protocol: Measurement method: c-fos is an indirect marker for neuronal activity, which is expressed on activation of nerve cell. Using a transgenic mouse introduced with a green fluorescent protein (GFP) gene at the downstream of the promoter of c-fos gene (c-fos-GFP mouse), the nerve activation pattern in the brain was measured. Brexpiprazole or vehicle was administered, and the brain was isolated 3 hr later. GFP signals from serial sections of the whole brain were stored in a computer using a two-photon microscope and, after three-dimensional reconstruction, the nerve activation patterns of brexpiprazole (OPC-34712) and vehicle groups were quantitatively analyzed using the brain map information. Brexpiprazole was suspended in distilled water containing 5% gum arabic, and orally administered to c-fos-GFP mouse. Five to seven mice were used. The dose of brexpiprazole was 0.3 and 1 mg/kg. The significance level of the test was set to 5%. In the comparison between groups in each brain region, Tukey's multiple comparison test was conducted.

[8] = tested on: Wistar rat; settings: reported in Alcohol & Alcoholism 2001; 36:2-10; cited from earlier work
[9] = tested on: mouse having a Disc1 L100P point mutation; settings: Neuron 54(3): 387-402, 2007; cited from earlier work
[10] = tested on: patients with highly severe Alzheimer's disease; settings: 12 weeks, Alzheimer's disease patients in nursing home, cited from earlier work
[11] = 0.01 mg/kg oral, n = 6, mean ± standard error
[12] = 0.03 mg/kg oral, n = 5, mean ± standard error

Cc1nc2n(c(=O)c1CCN1CCC(c3noc4cc(F)ccc34)CC1)CCCC2 [risperidone]
hostility (positive scale of PANSS) [1]: aggravated hostility

O=c1ccc2ccc(OCCCCN3CCN(c4cccc5sccc45)CC3)cc2[nH]1 [brexpiprazole, 7-[4-(4-benzo[b]thiophen-4-yl-piperazin-1-yl)butoxy]-1H-quinolin-2-one]
ethanol intake observed individually ([2]; 0.1 mg/kg oral for 4 days, five rats): all rats showed a decrease in the ethanol intake | average ethanol intake in the limited access paradigm ([2]; 0.1 mg/kg oral once per day for 4 days, 1 hr before, vs 4 days before drug): statistically significant suppression of ethanol intake | time necessary for the first biting compared to the vehicle group ([3]; P<0.05): significantly elongated | number of biting for 10 min compared to the vehicle group ([3]; P=0.0709): tended to show a decreased number of biting | spontaneous locomotor activity at Night 3, dark period phase III, vs vehicle (in words) ([4]; 0.01 mg/kg oral, P<0.01): significantly suppressed the spontaneous locomotor activity at Night 3 | spontaneous locomotor activity in dark period phase III compared to the vehicle group (Night 1-Night 3) ([4]; 0.01 mg/kg oral, P<0.05): significantly suppress the spontaneous locomotor activity | spontaneous locomotor activity in dark period phase III compared to the vehicle group (Night 1-Night 3) ([4]; 0.03 mg/kg oral, P=0.050): significantly suppress the spontaneous locomotor activity | spontaneous locomotor activity at Night 3, dark period phase III, vs vehicle (in words) ([4]; 0.03 mg/kg oral, P=0.068): tended to suppress at Night 3 | spontaneous locomotor activity, dark period III (3:00-7:00), Night 1 [4, 11]: 7256 | spontaneous locomotor activity, dark period III (3:00-7:00), Night 2 [4, 11]: 6466 | spontaneous locomotor activity, dark period III (3:00-7:00), Night 3 ([4]; 0.01 mg/kg oral, n = 6, mean ± standard error, P < 0.01 vs vehicle): 4928 | spontaneous locomotor activity, dark period III (3:00-7:00), Night 1 [4, 12]: 6014 | spontaneous locomotor activity, dark period III (3:00-7:00), Night 2 [4, 12]: 5443 | spontaneous locomotor activity, dark period III (3:00-7:00), Night 3 ([4]; 0.03 mg/kg oral, n = 5, mean ± standard error, P = 0.068 vs vehicle): 6845 | influence on spontaneous locomotor activity under novel environments [5]: does not influence spontaneous locomotor activity | spontaneous locomotor activity in dark period [6]: did not decrease the spontaneous locomotor activity | GFP signal in the medial prefrontal cortex (ACA, PL, IL) relative to vehicle ([7]; 0.3 mg/kg oral): significantly increased GFP signal | GFP signal in the medial prefrontal cortex (ACA, PL, IL) relative to vehicle ([7]; 1 mg/kg oral): significantly increased GFP signal

C=C1CC[C@@]2(O)[C@H]3Cc4ccc(O)c5c4[C@@]2(CCN3CC2CC2)[C@H]1O5 [Nalmefene]
effect in the limited access paradigm evaluation system [8]: shows effect in this evaluation system

O=C(CCCN1CCC(O)(c2ccc(Cl)cc2)CC1)c1ccc(F)cc1 [haloperidol]
schizophrenia-like behaviors [9]: reduced the schizophrenia-like behaviors | hostility (positive scale of PANSS) [1]: aggravated hostility

COc1cc2c(cc1OC)C(=O)C(CC1CCN(Cc3ccccc3)CC1)C2 (stereo not drawn) [donepezil]
NPI (Neuropsychiatric Inventory) score vs placebo ([10]; p value 0.95): no statistically significant difference | CMAI (Cohen-Mansfield Agitation Inventory) score vs placebo ([10]; p value 0.98): no statistically significant difference
